Measured values from ChEMBL document CHEMBL1212831, “Discovery of N-[(2S)-5-(6-fluoro-3-pyridinyl)-2,3-dihydro-1H-inden-2-yl]-2-propanesulfonamide, a novel clinical AMPA receptor positive modulator” (J Med Chem, 2010).
≈ marks a conversion by molar mass, not a printed value. Calls of active or inactive are those of the source. No cut-off for these calls is given here.

How the values were obtained:
[1] = Half life in Sprague-Dawley rat at 1 mg/kg, iv; format: ADME, organism-based; parameters: dose 1 mg/kg, route intravenous; conditions: in vivo
[2] = tested on: Canis familiaris; assay: Liver blood flow in Beagle dog at 0.125 mg/kg, iv and 0.5 mg/kg, po; format: ADME, organism-based, Canis lupus familiaris; conditions: in vivo
[3] = Volume of distribution at steady state in Beagle dog at 0.125 mg/kg, iv and 0.5 mg/kg, po; format: ADME, organism-based, Canis lupus familiaris; conditions: in vivo, read-out: Vdss
[4] = Half life in Beagle dog at 0.125 mg/kg, iv; format: ADME, organism-based, Canis lupus familiaris; parameters: dose 0.125 mg/kg, route intravenous; conditions: in vivo
[5] = Cmax in Beagle dog at 0.5 mg/kg, po; format: ADME, organism-based, Canis lupus familiaris; parameters: dose 0.5 mg/kg, route oral; conditions: in vivo
[6] = Tmax in Beagle dog at 0.5 mg/kg, po; format: ADME, organism-based, Canis lupus familiaris; parameters: dose 0.5 mg/kg, route oral; conditions: in vivo
[7] = Blood clearance in cynomolgus monkey at 0.125 mg/kg, iv and 0.5 mg/kg, po; format: ADME, organism-based, Macaca fascicularis
[8] = Half life in cynomolgus monkey at 0.125 mg/kg, iv; format: ADME, organism-based, Macaca fascicularis; parameters: dose 0.125 mg/kg, route intravenous; conditions: in vivo
[9] = Oral bioavailability in cynomolgus monkey at 0.5 mg/kg; format: ADME, organism-based, Macaca fascicularis; conditions: in vivo
[10] = Cmax in cynomolgus monkey at 0.5 mg/kg, po; format: ADME, organism-based, Macaca fascicularis; parameters: dose 0.5 mg/kg, route oral; conditions: in vivo
[11] = Tmax in cynomolgus monkey at 0.5 mg/kg, po; format: ADME, organism-based, Macaca fascicularis; parameters: dose 0.5 mg/kg, route oral; conditions: in vivo
[12] = Equilibrium solubility of the compound in water at pH 2 to 10; format: physicochemical
[13] = Equilibrium solubility of the compound in simulated gastric fluid at pH 2 to 10; format: physicochemical
[14] = Equilibrium solubility of the compound in fed simulated intestinal fluid at pH 2 to 10; format: physicochemical
[15] = Equilibrium solubility of the compound in fasted simulated intestinal fluid at pH 2 to 10; format: physicochemical
[16] = target: T1, Nuclear receptor subfamily 1 group I member 2 (Rattus norvegicus, UniProt Q9R1A7); assay: Activation of rat PXR
T1 sequence (Q9R1A7 whole entry): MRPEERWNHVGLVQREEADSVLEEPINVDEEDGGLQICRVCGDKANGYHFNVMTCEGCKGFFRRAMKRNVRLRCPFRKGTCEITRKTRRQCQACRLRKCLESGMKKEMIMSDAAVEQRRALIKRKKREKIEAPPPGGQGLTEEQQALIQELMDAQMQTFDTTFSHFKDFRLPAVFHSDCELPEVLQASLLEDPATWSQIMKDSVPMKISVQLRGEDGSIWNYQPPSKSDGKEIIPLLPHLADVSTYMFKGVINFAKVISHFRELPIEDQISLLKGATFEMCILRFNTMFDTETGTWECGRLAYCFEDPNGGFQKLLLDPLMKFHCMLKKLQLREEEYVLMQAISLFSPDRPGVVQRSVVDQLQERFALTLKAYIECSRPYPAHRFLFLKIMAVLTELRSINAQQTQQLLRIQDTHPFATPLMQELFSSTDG

[17] = target: T2, Nuclear receptor subfamily 1 group I member 2 (Homo sapiens, UniProt O75469); assay: Activation of human PXR
T2 sequence (O75469 whole entry): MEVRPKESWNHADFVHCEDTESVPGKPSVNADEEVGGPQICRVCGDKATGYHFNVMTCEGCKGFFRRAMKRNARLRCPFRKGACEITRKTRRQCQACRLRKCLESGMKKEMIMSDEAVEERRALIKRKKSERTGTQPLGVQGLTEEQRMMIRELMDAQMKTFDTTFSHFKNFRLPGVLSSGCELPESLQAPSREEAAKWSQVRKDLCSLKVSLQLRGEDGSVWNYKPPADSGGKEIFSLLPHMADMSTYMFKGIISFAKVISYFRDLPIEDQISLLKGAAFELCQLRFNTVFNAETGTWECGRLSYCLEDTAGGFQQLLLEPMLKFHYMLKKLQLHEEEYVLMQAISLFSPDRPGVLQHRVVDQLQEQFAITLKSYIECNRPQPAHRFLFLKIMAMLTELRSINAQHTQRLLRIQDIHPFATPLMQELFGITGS

[18] = Plasma protein binding in monkey at 1 ug/ml after 6 hrs by equilibrium dialysis method; format: ADME, cell-free, Macaca mulatta; conditions: rhesus monkey, read-out: PPB (converted)
[19] = target: Voltage-gated inwardly rectifying potassium channel KCNH2 (Homo sapiens, UniProt Q12809); assay: Inhibition of human ERG
[20] = Apparent half life in human; format: ADME, organism-based; conditions: in vivo, read-out: beta t1/2 (converted)
[21] = tested on: Homo sapiens; assay: Toxicity in human at 0.25 to 6 mg/kg administered as single dose; format: organism-based; parameters: dose 0.25-6 mg/kg; conditions: in vivo
[22] = tested on: Homo sapiens; assay: Toxicity in human at 0.1 mg/kg QD for 28 days; format: organism-based; parameters: dose 0.1 mg/kg; conditions: in vivo, 672 h
[23] = Plasma protein binding in rat at 1 ug/ml after 6 hrs by equilibrium dialysis method; format: ADME, cell-free; conditions: read-out: PPB (converted)
[24] = target: Glutamate receptor 2 (Homo sapiens, UniProt P42262); assay: Activation of human recombinant GluR2 flip isoform expressed in HEK293 cells assessed as increase of glutamate-induced inward current at 30 uM by whole cell voltage-clamp electrophysiology assay; format: cell-based
[25] = tested on: Rattus norvegicus; assay: Cognitive enhancing effect in po dosed Lister Hooded rat assessed as reversal of 24 hrs delay-induced retention deficit behavior by novel object recognition assay; format: functional; conditions: read-out: MED
[26] = tested on: Blood; assay: Drug level in po dosed Lister Hooded rat blood; format: ADME, organism-based; conditions: in vivo
[27] = tested on: Rattus norvegicus; assay: Antiamnesic activity in po dosed assessed as inhibition of Scopolamine-induced amnesic deficit administered 3 hrs before Scopolamine challenge by step-down passive avoidance test; format: functional, organism-based; conditions: Wistar
[28] = tested on: Rattus norvegicus; assay: Antiamnesic activity in po dosed assessed as inhibition of amnesic deficit by step-down passive avoidance test; format: functional, organism-based; conditions: Wistar
[29] = Blood clearance in Sprague-Dawley rat at 1 mg/kg, iv and 3 mg/kg, po; format: ADME, organism-based
[30] = Volume of distribution at steady state in Sprague-Dawley rat at 1 mg/kg, iv and 3 mg/kg, po; format: ADME, organism-based; conditions: in vivo, read-out: Vdss
[31] = Cmax in Sprague-Dawley rat at 3 mg/kg, po; format: ADME, organism-based; parameters: dose 3 mg/kg, route oral; conditions: in vivo
[32] = Tmax in Sprague-Dawley rat at 3 mg/kg, po; format: ADME, organism-based; parameters: dose 3 mg/kg, route oral; conditions: in vivo
[33] = target: Cytochrome P450 2C9 (Homo sapiens, UniProt P11712)
Description: Inhibition of human CYP2C9 after 10 mins

[34] = target: Cytochrome P450 2C19 (Homo sapiens, UniProt P33261)
Description: Inhibition of human CYP2C19 after 10 mins

[35] = tested on: Liver microsomes
[36] = tested on: Liver microsomes; remark: listed apart in the source

Chain of Cytochrome P450 2C9 (P11712 whole entry): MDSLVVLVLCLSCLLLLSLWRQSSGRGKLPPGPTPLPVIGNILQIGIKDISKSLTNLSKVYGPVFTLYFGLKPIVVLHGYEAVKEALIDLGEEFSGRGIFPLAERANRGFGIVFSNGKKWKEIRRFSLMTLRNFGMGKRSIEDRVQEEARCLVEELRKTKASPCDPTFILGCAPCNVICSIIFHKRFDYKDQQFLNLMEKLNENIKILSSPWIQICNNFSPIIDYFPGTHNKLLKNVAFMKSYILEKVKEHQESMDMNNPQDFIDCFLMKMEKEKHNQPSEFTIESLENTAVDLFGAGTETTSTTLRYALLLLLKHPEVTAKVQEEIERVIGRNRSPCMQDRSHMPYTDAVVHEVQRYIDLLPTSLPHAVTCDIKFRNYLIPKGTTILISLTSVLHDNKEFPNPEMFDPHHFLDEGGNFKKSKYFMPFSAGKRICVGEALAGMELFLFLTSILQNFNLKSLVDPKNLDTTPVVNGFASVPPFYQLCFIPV
Chain of Cytochrome P450 2C19 (P33261 whole entry): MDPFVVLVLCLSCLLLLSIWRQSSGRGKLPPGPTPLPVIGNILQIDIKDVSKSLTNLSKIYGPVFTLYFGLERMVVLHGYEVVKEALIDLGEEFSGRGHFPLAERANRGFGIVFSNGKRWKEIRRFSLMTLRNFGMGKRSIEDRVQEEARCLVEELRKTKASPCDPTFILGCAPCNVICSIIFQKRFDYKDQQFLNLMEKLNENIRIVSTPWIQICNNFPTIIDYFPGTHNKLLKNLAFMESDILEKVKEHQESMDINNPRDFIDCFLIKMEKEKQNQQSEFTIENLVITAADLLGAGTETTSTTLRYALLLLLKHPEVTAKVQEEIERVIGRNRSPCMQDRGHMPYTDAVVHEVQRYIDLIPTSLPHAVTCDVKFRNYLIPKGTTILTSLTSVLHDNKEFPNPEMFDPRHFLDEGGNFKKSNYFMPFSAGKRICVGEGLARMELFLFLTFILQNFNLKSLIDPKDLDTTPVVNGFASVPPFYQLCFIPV
Chain of Glutamate receptor 2 (P42262 whole entry, canonical isoform): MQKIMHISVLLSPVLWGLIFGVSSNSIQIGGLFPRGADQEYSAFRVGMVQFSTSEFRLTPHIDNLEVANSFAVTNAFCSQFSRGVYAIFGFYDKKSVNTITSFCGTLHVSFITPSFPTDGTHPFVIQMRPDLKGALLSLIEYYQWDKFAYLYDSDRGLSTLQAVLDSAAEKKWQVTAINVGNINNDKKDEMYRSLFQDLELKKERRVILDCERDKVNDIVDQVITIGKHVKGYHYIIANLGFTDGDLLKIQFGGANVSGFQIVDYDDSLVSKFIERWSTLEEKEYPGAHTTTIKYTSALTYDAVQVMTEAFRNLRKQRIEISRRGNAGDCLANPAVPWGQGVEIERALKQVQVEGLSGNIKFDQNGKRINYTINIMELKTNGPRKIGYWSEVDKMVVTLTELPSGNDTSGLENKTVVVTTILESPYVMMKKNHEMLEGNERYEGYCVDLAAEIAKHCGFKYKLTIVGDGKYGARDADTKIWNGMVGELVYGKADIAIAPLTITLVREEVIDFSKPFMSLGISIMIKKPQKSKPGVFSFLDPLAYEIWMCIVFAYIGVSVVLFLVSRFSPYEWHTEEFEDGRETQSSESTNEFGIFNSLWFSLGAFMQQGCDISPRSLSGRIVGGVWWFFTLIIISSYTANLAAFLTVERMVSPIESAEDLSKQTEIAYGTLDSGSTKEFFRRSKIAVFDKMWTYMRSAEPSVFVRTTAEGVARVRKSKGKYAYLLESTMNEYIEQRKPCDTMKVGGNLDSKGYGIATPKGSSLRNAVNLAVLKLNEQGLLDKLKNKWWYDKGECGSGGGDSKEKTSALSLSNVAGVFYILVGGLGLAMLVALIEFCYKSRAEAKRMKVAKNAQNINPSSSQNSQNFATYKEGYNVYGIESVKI
Chain of Voltage-gated inwardly rectifying potassium channel KCNH2 (Q12809 whole entry): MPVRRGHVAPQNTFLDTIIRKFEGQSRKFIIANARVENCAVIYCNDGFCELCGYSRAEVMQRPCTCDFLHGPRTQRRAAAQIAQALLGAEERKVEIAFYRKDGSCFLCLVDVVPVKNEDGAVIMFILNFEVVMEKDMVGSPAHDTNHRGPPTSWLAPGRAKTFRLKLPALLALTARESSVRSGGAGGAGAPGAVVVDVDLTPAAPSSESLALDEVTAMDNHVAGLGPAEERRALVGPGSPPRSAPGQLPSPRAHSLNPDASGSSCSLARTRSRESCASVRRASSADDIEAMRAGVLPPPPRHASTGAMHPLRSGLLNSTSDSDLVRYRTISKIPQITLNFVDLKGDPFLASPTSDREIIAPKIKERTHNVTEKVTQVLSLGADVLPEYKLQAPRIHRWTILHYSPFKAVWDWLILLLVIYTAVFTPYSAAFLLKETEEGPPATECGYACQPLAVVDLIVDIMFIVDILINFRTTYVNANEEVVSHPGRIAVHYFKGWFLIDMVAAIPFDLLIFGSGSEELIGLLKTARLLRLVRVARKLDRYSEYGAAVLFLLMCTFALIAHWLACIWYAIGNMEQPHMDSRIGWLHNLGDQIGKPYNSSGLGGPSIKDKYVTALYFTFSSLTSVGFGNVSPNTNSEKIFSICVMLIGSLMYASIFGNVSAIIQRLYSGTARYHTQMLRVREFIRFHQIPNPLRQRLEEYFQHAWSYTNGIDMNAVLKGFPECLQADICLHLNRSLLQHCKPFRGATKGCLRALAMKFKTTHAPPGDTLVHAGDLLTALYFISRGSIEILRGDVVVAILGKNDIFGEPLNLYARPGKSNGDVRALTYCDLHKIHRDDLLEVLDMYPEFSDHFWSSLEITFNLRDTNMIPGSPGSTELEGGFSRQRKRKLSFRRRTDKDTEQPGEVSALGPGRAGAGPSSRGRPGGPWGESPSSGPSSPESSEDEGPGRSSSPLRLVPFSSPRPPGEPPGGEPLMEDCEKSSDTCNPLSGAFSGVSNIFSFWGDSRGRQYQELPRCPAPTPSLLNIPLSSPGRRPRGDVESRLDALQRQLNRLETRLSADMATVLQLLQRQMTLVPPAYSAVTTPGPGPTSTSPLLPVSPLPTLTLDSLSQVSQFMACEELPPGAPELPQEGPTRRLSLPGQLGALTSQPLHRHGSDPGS

With `CC(C)S(=O)(=O)N[C@H]1Cc2ccc(-c3ccc(F)nc3)cc2C1` [GSK-729327] the half-life [1] was 5 h, the LBF [2] was 11% and the Vd [3] was 4.8 L/kg. For the same molecule, the half-life [4] was 16 h, the Cmax [5] was 116 ng/mL and the Tmax [6] was 2 h. The clearance [7] was 1.4 mL/min/kg, the half-life [8] was 15 h and the bioavailability [9] was 51%. It also gave a Cmax [10] of 115 ng/mL, a Tmax [11] of 6 h and a solubility thermodynamic [12] of 100 µg/mL (≈ 299 µM). It also gave a solubility thermodynamic [13] of 100 µg/mL (≈ 299 µM), a solubility thermodynamic [14] of 100 µg/mL (≈ 299 µM) and a solubility thermodynamic [15] of 100 µg/mL (≈ 299 µM). The Activity [16] was “Not Active”, the Activity [17] was “Not Active” and the fraction unbound at 6 h, 1 ug/ml [18] was 0.152. For the same molecule, the “inhibition (INH)” value [19] was “Not Active”, the half-life [20] was 107 h and the Activity [21] was “Non-toxic”. For the same molecule, the Activity [22] was “Non-toxic”, the fraction unbound at 6 h, 1 ug/ml [23] was 0.133 and the Activity [24] was “Active”. The minimal effective dose [25] was 0.3 mg/kg, the Drug uptake [26] was 81 ng/mL and the Activity [27] was “Dose-dependent effect”. The inhibition [28] was “inactive”, the clearance [29] was 5.4 mL/min/kg and the Vd [30] was 2.4 L/kg. It also gave a Cmax [31] of 416 ng/mL, a Tmax [32] of 3 h and an IC50 [33] of over 10000 nM. It also gave an IC50 [34] of over 10000 nM, an IC50 [35] of 700 nM and an IC50 [36] of under 700 nM.
